On the set-up of data set [1]: method as in PMID 29403934, PMID 23288091, PMID 29957667. To be noted: cited from earlier work.
Data set [2] is described as follows: Stability of analytes in spiked saliva, freeze–thaw test at −21 °C. The format is in vitro ADME, human. The note with it: freeze–thaw cycles at −21 °C. The protocol:
The stability of the analytes was tested for three concentrations (low QC, medium QC, and high QC). The stability of the analytes was determined both in the matrix during storage at 8 °C and in a freeze–thaw test, during which spiked saliva samples were stored at −21 °C. For each concentration of carbamazepine and metabolite, three 800 μL saliva samples were prepared in plastic tubes, spiked with an appropriate volume of analytes, and mixed. Then, 200 μL of saliva was taken from each sample, IS added, extracted, and chromatographed according to the procedures described in Section 2.4 and Section 2.5. The remainder of the sample was placed back in the refrigerator or frozen and analyzed in the following days.
(§1) The compounds whose concentration decreased by less than 15% under the given storage conditions were considered to be stable.

Data set [3] in a line: Carbamazepine and carbamazepine-10,11 epoxide concentrations in saliva of patients treated with carbamazepine (UHPLC-DAD after deproteinization). The format is in vivo, human. How it is done: The chromatographic analysis was performed with a Nexer XR UHPLC (Ultra High Performance Liquid Chromatography) liquid chromatograph (Schimadzu, Kyoto, Japan), equipped with a SPD-M30A UV-Vis detector with a diode array and a highly sensitive measuring cell SPD-M30A (85 mm), CBM-20 Alite control system, LC-30AD pump, SIL-30AC autosampler, and CTO-20AC thermostat (Shimadzu, Kyoto, Japan). The compounds were separated using a Luna Omega 1.6 µm Polar C18 (LC Column 50 × 2.1 mm ID) with pre-columns (UHPLC Fully Porous Polar C18, 2.1 mm ID). The compounds were eluted from the column at 35 °C with a mobile phase consisting of water with added formic acid and triethylamine (TEA) (solvent A, pH 4.2) and acetonitrile (solvent B) at a flow of 1 mL/min.
The saliva samples were thawed, centrifuged, and then 200 μL of test material was collected and placed in plastic tubes. A 1% formic acid solution in acetonitrile (600 µL) was added to each of them, mixed with a vortex, shaken (laboratory shaker 358 S, Elpin, Poland) for about 10 min, and centrifuged for 5 min at 8000 rpm. The supernatant was transferred to glass tubes and evaporated. The dry residue was dissolved in 100 μL of an acetonitrile/water mixture with formic acid (1:10), and 10 μL was injected into the chromatographic column.
The usefulness of the method was determined by examining the saliva samples of 20 patients treated with carbamazepine preparations. They were collected from patients of the Nervous and Mentally Ill Hospital in Starogard Gdański (Poland). The study protocol was approved by the ethical committee of the Medical University of Gdansk, Poland (NKBBN/139/2016). Saliva was taken using Salivettes about 2 h after the administration of carbamazepine. The Salivette was placed in a test tube and centrifuged, and the obtained filtrate was frozen at −21 °C and stored until analysis. To perform the analyses, the samples were thawed, centrifuged, and 200 μL of liquid taken. Then, 50 μL of IS solution (10 μg/mL) was added and the procedure described in Section 2.4 was followed.

The nature of data set [4]: Stability of analytes in spiked saliva stored in a fridge at 8 °C. The note with it: for stability under the tested conditions: saliva at 8 °C, freeze–thaw at −21 °C, autosampler 15 °C 72 h, 30, 2000, 3750 ng/mL, stable = decrease less than 15%; for Difference (%): spiked saliva stored in a fridge at 8 °C. It counts as in vitro ADME, human. The protocol:
The stability of the analytes was tested for three concentrations (low QC, medium QC, and high QC). The stability of the analytes was determined both in the matrix during storage at 8 °C and in a freeze–thaw test, during which spiked saliva samples were stored at −21 °C. […] The remainder of the sample was placed back in the refrigerator or frozen and analyzed in the following days. The compounds whose concentration decreased by less than 15% under the given storage conditions were considered to be stable.

Data set [5] can be described thus: Stability of extracts kept in the autosampler at 15 °C for 72 h. To be noted: extracts in autosampler at 15 °C for 72 h. The format is physicochemical. How it is done:
The stability of the analytes was also determined during their storage in an autosampler at 15 °C for 72 h. For this purpose, five samples of each concentration were extracted and chromatographed. After 72 h, the samples were then chromatographed again alongside a freshly prepared calibration curve.
as §1

Where “and” joins values, the source holds several entries; their conditions need not be identical. Identical values can stand only once.

The term half-life denotes how long it takes for the measured level to halve. As for `NC(=O)N1c2ccccc2C=Cc2ccccc21` [Carbamazepine, carbamazepine], the half-life in data set [1] (after a single administration) is listed as 36 h. Moreover, the “excreted in the urine” value in data set [1] is reported as 72%. The “Difference (%)” value in data set [2] (30 ng/mL) is −2.25%; in data set [2] (2000 ng/mL) it was −2.16%; in data set [2] (3750 ng/mL), −1.44%; in data set [4] (30 ng/mL), −3.91%; in data set [4] (2000 ng/mL), −2.53%; in data set [4] (3750 ng/mL) it was −1.93%. Also, the “Difference (%)” value in data set [5] (30 ng/mL) is reported as −0.30%; in data set [5] (2000 ng/mL) it was −1.12%; in data set [5] (3750 ng/mL), −1.72%. The “mean concentration in saliva” value in data set [3] (female patients) is recorded as 967 ng/mL; in data set [3] (male patients) it was 1882 ng/mL. Further, the “Carbamazepine Concentration” value in data set [3] (saliva of individual patients, about 2 h after administration of carbamazepine, dose 400-1800 mg/day) was 344.7 ng/mL and 690.7 ng/mL and 1285.1 ng/mL and 464.0 ng/mL and 282.2 ng/mL and 472.9 ng/mL and 2456.8 ng/mL and 1668.1 ng/mL and 613.5 ng/mL and 784.3 ng/mL and 1119.9 ng/mL and 607.6 ng/mL and 1198.2 ng/mL and 1192.3 ng/mL and 1817.8 ng/mL and 4891.0 ng/mL and 4839.8 ng/mL and 1165.7 ng/mL and 262.2 ng/mL and 2334.2 ng/mL. For the same compound, in data set [4], the “stability under the tested conditions” value is recorded as “stable”.
On to `NC(=O)N1c2ccccc2C2OC2c2ccccc21` (centres unmarked) [Carbamazepine-10,11 epoxide, carbamazepine-10,11 epoxide], for which the “Difference (%)” value in data set [2] (30 ng/mL) is reported as −2.45%; in data set [2] (2000 ng/mL), −1.92%; in data set [2] (3750 ng/mL), −0.48%; in data set [4] (30 ng/mL), −6.23%; in data set [4] (2000 ng/mL), −3.56%; in data set [4] (3750 ng/mL), −2.75%. The “Difference (%)” value in data set [5] (30 ng/mL) is recorded as −3.64%; in data set [5] (2000 ng/mL), −2.3%; in data set [5] (3750 ng/mL) it was 0.38%. Besides, the “mean concentration in saliva” value in data set [3] (female, human, in vivo) is reported as 249 ng/mL; in data set [3] (male, human, in vivo) it was 299 ng/mL. In addition, the “determined concentrations in patient saliva, range” value in data set [3] (human, in vivo) lay within 120 to 664 ng/mL. Moreover, in data set [4] (30 ng/mL in saliva samples stored at 8 °C), the highest concentration reduction is reported as 6%. Also, the “stability under the tested conditions” value in data set [4] is recorded as “stable”.

The values are drawn from publication PMC7230990, “Deproteinization as a Rapid Method of Saliva Purification for the Determination of Carbamazepine and Carbamazepine-10,11 Epoxide” (Journal of Clinical Medicine, 2020).
